The values below are quoted from earlier work in patent US6576233B2 (priority 1996, dated 2003).

SMILES strings stand for the structures.

The conditions of series [1]: Ferris et al. 1989.
Series [2] concerns people. The settings on record: daily supplement, more than 1,300 people.

On to `[Se]` [Selenium, selenium], for which the “dosage reported as safe” value in series [1] is listed as 600 micrograms per day. In addition, in series [2], the “reduction of overall cancer risk” value is on record as approximately 40%.
